Tests used:
HeLa = test: MTT cell viability assay, HeLa; assay type: cell-based; conditions: Homo sapiens, 48 h treatment, 0.01 to 200 μM, ± SD, n.a. = not active
Procedure: (§1) Molecules 8–12 were tested in vitro using the MTT assay against four cancer cell lines: HeLa, SH-SY5Y, SaOS2, and U2OS. […] Cytotoxic activities were expressed as IC50 values, i.e., the concentration of the substance that reduced cell viability by 50% (Table 2).
(§2) HeLa, SH-SY5Y, SaOS2, U2OS, and HDFa cell lines were purchased from American Type Culture Collection (ATCC; Manassas, VA, USA). HeLa, SaOS2, and U2OS cells were cultured in RPMI 1640 medium (Labtek Eurobio, Milan, Italy), while SH-SY5Y and HDFa cells were cultured in high-glucose DMEM (Labtek Eurobio, Milan, Italy), and both were supplemented with 10% FCS (Euroclone, Milan, Italy) and 2mM L-glutamine (Sigma-Aldrich, Milan, Italy), at 37 °C in a 5% CO2 atmosphere. The compounds were dissolved in DMSO in a 30–50 mM stock solution. In cell treatments, the final DMSO concentration never exceeded 0.1%.
(§3) Cells were seeded at 1.5 × 10^4 cells/well in a 96-well culture plastic plate (Orange Scientific, Braine-l’Alleud, Belgium), and after 24 h of growth, they were exposed to increasing concentrations of compounds (from 0.01 to 200 μM) solubilized in RPMI 1640 medium. After 48 h of treatment, the culture medium was replaced with 0.1 mL of 3-(4,5-dimethylthiazolyl-2)-2,5-diphenyltetrazolium bromide (MTT; Sigma-Aldrich, Milan, Italy) dissolved in PBS at the concentration of 0.2 mg/mL, and samples were incubated for 2 h at 37 °C. The formazan salt crystals formed were dissolved with 0.2 mL of isopropyl alcohol for 20 min. The absorbance at 570 nm was measured using a multi-well plate reader (Tecan, Männedorf, Switzerland), and data were analyzed using Prism GraphPad software and expressed as IC50.

SH-SY5Y = test: MTT cell viability assay, SH-SY5Y; assay type: cell-based; conditions: Homo sapiens, 48 h treatment, 0.01 to 200 μM, ± SD, n.a. = not active
Procedure: as §1, §2, §3

SaOS2 = test: MTT cell viability assay, SaOS2; assay type: cell-based; conditions: Homo sapiens, SAOS-2, 48 h treatment, 0.01 to 200 μM, ± SD, n.a. = not active
Procedure: as §1, §2, §3

U2OS = test: MTT cell viability assay, U2OS; assay type: cell-based; conditions: Homo sapiens, 48 h treatment, 0.01 to 200 μM, ± SD, n.a. = not active
Procedure: as §1, §2, §3

HDFa = test: MTT cell viability assay, normal cell line HDFa; assay type: cell-based; conditions: Homo sapiens, normal dermal fibroblast, 48 h treatment, ± SD
Procedure: as §1, §2, §3

HeLa cells [1] = test: Intracellular ROS level (DCFDA), HeLa; assay type: cell-based, human
Procedure: (§4) To further explore and establish a direct relationship between 8 or 11 and ROS, DCFH-DA staining was applied to HeLa, U2OS, and SH-SY5Y cells treated for 1 h and 48 h. […] Indeed, in HeLa cells, 8 induced an increase in ROS formation of 1.14 ± 0.042, while in U2OS and SH-SY5Y cells, the increases were 1.30 ± 0.13-fold and 1.51 ± 0.16-fold with respect to control, with p < 0.0001, p < 0.0005, and p < 0.0024, respectively. In the same way, 11 induced increases in ROS formation in HeLa cells of 1.27 ± 0.16, while in U2OS and SH-SY5Y cells, the increases were 1.62 ± 0.11-fold and 1.61 ± 0.14-fold with respect to control, with p < 0.0049, p < 0.0001, and p < 0.0056, respectively. Moreover, it is important to note that both compounds 8 and 11 induced a greater formation of ROS in U2OS and SH-SY5Y cells than in HeLa cells, as shown in Figure 5A.
(§5) Oxidative stress was measured in intact cells using an ROS indicator, 2′,7′-dichlorodihydrofluorescein diacetate (DCFDA; Thermo Fisher Scientific, Waltham, MA, USA). HeLa, U2OS, and SH-SY5Y cells were seeded in 96-well plates at 1.5 × 10^4 cells/well (Optiplate, Perkin Elmer, Milan, Italy), and after 24 h to allow adhesion, HeLa and SH-SY5Y cells were incubated with 5 μM GA 462 or 20 μM SM71, while U2OS were treated with 5 μM 8 or 30 μM 11, dissolved in complete medium for 1 or 48 h at 37 °C in 5% CO2 atmosphere. After this time, cells were washed with PBS and treated with 10 μM DCFDA in culture medium for 30 min. Finally, cells were washed again with PBS and the fluorescence value in each well was measured (λexc = 488 nm; λem = 530 nm) with a plate reader (Tecan, Männedorf, Switzerland). Fluorescence emission was normalized to protein content measured using the Bradford method.

U2OS cells [2] = test: Intracellular ROS level (DCFDA), U2OS; assay type: cell-based, human; conditions: 5 μM 8 or 30 μM 11; for increase in ROS formation with respect to control: 1 h; for ROS production: 48 h
Procedure: as §4, §5

SH-SY5Y cells [3] = test: Intracellular ROS level (DCFDA), SH-SY5Y; assay type: cell-based, human; conditions: for increase in ROS formation with respect to control: 1 h, 5 μM 8 (GA 462) or 20 μM 11 (SM71); for ROS production: 48 h, 5 μM 8 or 20 μM 11
Procedure: as §4, §5

HeLa cells [4] = test: Cell-cycle analysis (PI stain, flow cytometry), HeLa; assay type: cell-based, human; conditions: 5 μM
Procedure: (§6) For this reason, we decided to analyze the effects on proliferation by treating the cells only with 8. Next, we explored the effect of 5 μM 8 on cell-cycle distribution in HeLa, U2OS, and SH-SY5Y cancer cells using PI stain followed by flow cytometry. Cells were exposed to the compound for 24 or 48 h prior to processing and analysis.
(§7) The effects on the HeLa and U2OS cell cycles were studied after 24 or 48 h of treatment with 5 μM 8. Cells were detached with 0.11% trypsin, washed in PBS and centrifuged. The pellet was resuspended in 0.01% Nonidet P-40, 10 μg/mL RNase, 0.1% sodium citrate, and 50 μg/mL PI, for 30 min at room temperature in the dark. Flow cytometric analyses were performed as previously described.

U2OS cells [5] = test: Cell-cycle analysis (PI stain, flow cytometry), U2OS; assay type: cell-based, human; conditions: 5 μM
Procedure: as §6, §7

SH-SY5Y cells [6] = test: Cell-cycle analysis (PI stain, flow cytometry), SH-SY5Y; assay type: cell-based, human; conditions: 5 μM
Procedure: as §6, §7

[7] = tested on: HeLa, SH-SY5Y, SaOS2, and U2OS; test: MTT cell viability assay, all malignant cell lines tested (summary); assay type: cell-based, human; conditions: summary over HeLa, 48 h; for IC50: Homo sapiens, read-out: IC50 values against all the malignant cell lines tested
Procedure: as §1, §2, §3

[8] = 1 h, 5 μM 8 (GA 462) or 20 μM 11 (SM71)

In the case of `CC(=O)N[C@@H](CSC1=CC(=O)c2ccccc2C1=O)C(=O)O` [Compound 8, N-acetyl-S-(1,4-dioxo-1,4-dihydronaphthalen-2-yl)-L-cysteine], the IC50 (HeLa) is reported as 540 ± 50 nM, the IC50 (SH-SY5Y) is reported as 870 ± 3 nM and the IC50 (SaOS2) is reported as 1670 ± 10 nM. For the same molecule, the IC50 (U2OS) was 1810 ± 7 nM, the IC50 (HDFa) was 7430 ± 20 nM and the “increase in ROS formation with respect to control” value (from here on “increase in ROS formation”) (HeLa cells [1]; [8]) was 1.14 ± 0.042 fold. The “increase in ROS formation” value (HeLa cells [1]; 48 h, 5 μM 8) was 2.28 ± 0.47 fold, the “increase in ROS formation” value (U2OS cells [2]) was 1.30 ± 0.13 fold and the ROS production (U2OS cells [2]) was “no ROS production”. The “increase in ROS formation” value (SH-SY5Y cells [3]) was 1.51 ± 0.16 fold, the ROS production (SH-SY5Y cells [3]) was “no ROS production” and the “increase in the number of G0/G1-phase cells with respect to control” value (HeLa cells [4]; 24 h) was 1.3%. The “increase in the number of cells in the S phase with respect to control” value (HeLa cells [4]; 48 h) was 1.2%, the “increase in S-phase cells with respect to control” value (U2OS cells [5]; 24 h) was 1.3% and the “accumulation of cells in the S phase with respect to control” value (U2OS cells [5]; 48 h) was 1.1%. For the same molecule, the “increase in S-phase cells with respect to control” value (SH-SY5Y cells [6]; 24 h) was 1.1%, the “accumulation of cells in the S phase with respect to control” value (SH-SY5Y cells [6]; 48 h) was 1.3% and the IC50 [7] was 500 to 1810 nM.
In the case of `CC(=O)N[C@@H](CSC1=C(C)C(=O)c2ccccc2C1=O)C(=O)O` [Compound 9, N-acetyl-S-(3-methyl-1,4-dioxo-1,4-dihydronaphthalen-2-yl)-L-cysteine], the IC50 (HeLa) is reported as 500 ± 80 nM, the IC50 (SH-SY5Y) is reported as 960 ± 60 nM and the IC50 (SaOS2) is reported as 590 ± 40 nM. The IC50 (U2OS) was 510 ± 60 nM, the IC50 (HDFa) was 3870 ± 10 nM and the IC50 [7] was 500 to 1810 nM. It also gave a melting point of 206.9 to 208.3 °C.
For `CC(=O)N[C@@H](CSC1=C(C)C(=O)c2cccc(O)c2C1=O)C(=O)O` [Compound 10, N-acetyl-S-(8-hydroxy-3-methyl-1,4-dioxo-1,4-dihydronaphthalen-2-yl)-L-cysteine], the “IC50 values against all the malignant cell lines tested” value [7] was “inactive” and the melting point was > 193 °C (dec.).
Work on `CC(=O)N[C@@H](CSC1=CC(=O)c2c(O)cccc2C1=O)C(=O)O` [Compound 11, N-acetyl-S-(5-hydroxy-1,4-dioxo-1,4-dihydronaphthalen-2-yl)-L-cysteine] yielded an IC50 (HeLa) of 13200 ± 50 nM, an IC50 (SH-SY5Y) of 11400 ± 1 nM and an IC50 (SaOS2) of 25900 ± 50 nM. The IC50 (U2OS) was 30400 ± 5 nM, the IC50 (HDFa) was 6880 ± 50 nM and the “increase in ROS formation” value (HeLa cells [1]; [8]) was 1.27 ± 0.16 fold. For the same molecule, the “increase in ROS formation” value (U2OS cells [2]) was 1.62 ± 0.11 fold, the ROS production (U2OS cells [2]) was “no ROS production” and the “increase in ROS formation” value (SH-SY5Y cells [3]) was 1.61 ± 0.14 fold. For the same molecule, the ROS production (SH-SY5Y cells [3]) was “no ROS production” and the melting point was 209.8 to 211.7 °C.
Molecule `CC(=O)N[C@@H](CSC1=CC(=O)c2c(O)ccc(O)c2C1=O)C(=O)O` [Compound 12, N-acetyl-S-(5,8-dihydroxy-1,4-dioxo-1,4-dihydronaphtalen-2-yl)-L-cysteine] has an IC50 (HeLa) of 1040 ± 8 nM, an IC50 (SH-SY5Y) of 630 ± 40 nM and an IC50 (SaOS2) of 1560 ± 30 nM. The IC50 (U2OS) was 1650 ± 30 nM, the IC50 (HDFa) was 830 ± 7 nM and the IC50 [7] was 500 to 1810 nM. For the same molecule, the melting point was 238.2 to 239.9 °C.

Source: paper PMC9457610, “Synthesis of thia-Michael-Type Adducts between Naphthoquinones and N-Acetyl-L-Cysteine and Their Biological Activity” (Molecules, 2022)
